Assay results from US20250367187A1, “QUINOLINE DERIVATIVE USED FOR TREATING SMALL CELL LUNG CANCER” (CHIA TAI TIANQING PHARMACEUTICAL GROUP CO., LTD., priority 2018, published 2025).
Where a name gives a salt, the structure may show the parent alone.

Legend:
[1] = test system: small cell lung cancer with liver and brain metastases; assay: Case of a patient with small cell lung cancer with liver and brain metastases (CT follow-up); type: in vivo, human
Method: A person was pathologically diagnosed with small cell lung cancer of the left lower lobe in October 2013 after surgery. On Dec. […] The patient was admitted to the hospital for one cycle of liposomal paclitaxel+carboplatin+temozolomide chemotherapy and was discharged on December 28.
One cycle of TC regimen (paclitaxel+carboplatin) was started on Jan. 17, 2017, and the efficacy was evaluated as PD on Feb. 10, 2017. One cycle of IP regimen (irinotecan 120 mg d1, 80 mg d8; cisplatin 100 mg d1) was started on Feb. 16, 2017.
On May 12, 2017, oral administration of a capsule of the dihydrochloride of the compound of formula I at 12 mg was started once daily for 2 weeks and interrupted for 1 week, every 3-week as one treatment cycle until PD or intolerance.
The CT results were as follows: • After the first treatment cycle: target lesion: 63 mm; non-target lesions: non-CR/non-PD. • After the second treatment cycle: target lesion: 65 mm; non-target lesions: non-CR/non-PD. • After the fourth treatment cycle: target lesion: 66 mm; non-target lesions: non-CR/non-PD. • After the sixth treatment cycle: target lesion: 72 mm; non-target lesions: non-CR/non-PD. 1-20. (canceled)

[2] = test system: patients with relapsed small cell lung cancer; assay: Multicenter, randomized, double-blind, placebo-controlled phase II clinical study; type: in vivo, human
Method: A multicenter, randomized, double-blind and placebo-controlled phase II clinical study was conducted for patients with relapsed small cell lung cancer characterized by presence of measurable lesions and prior standard treatment. In this study; 120 patients were enrolled and randomized to receive oral administration of 1 capsule of the dihydrochloride of the compound of formula I at 12 mg/0 mg once daily. The oral administration was continued for 2 weeks and interrupted for 1 week, i.e., 1 treatment cycle took 3 weeks (21 days). These patients aged 18-75 were treated with the capsule of the dihydrochloride of the compound of formula I and placebo control, and patients who had previously used other targeted drugs (such as sunitinib, bevacizumab, and endostar) and immunotargeted drugs were excluded. In the case of progressive disease (PD) determined by the response evaluation criteria or judged clinically; treatment with other anti-tumor drugs (such as chemotherapy; targeted therapy or biological agent therapy) influencing the judgment of efficacy; unexpected pregnancy; death and the like, the administration was interrupted (terminated) for a subject. For patients with disease under control (CR+PR+SD) and tolerable adverse reactions, the administration was continued. For patients who were unsuitable for continued administration judged by the investigator or were evaluated as PD according to RECIST 1.1 criteria, the administration was terminated. During the administration, depending on the drug-related toxicity degree and the possible efficacy benefit of a patient, the investigator determined whether to adjust the dosage, and the adjustable dosage was 8 mg/0 mg or 10 mg/0 mg. The primary efficacy endpoint was progression-free survival (PFS), and the secondary efficacy endpoints were overall survival (OS), objective response rate (ORR) (CR+PR), disease control rate (DCR) (CR+PR+SD), quality of life score and safety: The objective efficacy endpoint was evaluated according to the response evaluation criteria in solid tumor (RECIST 1.1). All statistical analyses were conducted using the SAS 9.2 statistical analysis software programming. All statistical tests were conducted using bilateral test. When P value≤0.05, the tested difference was considered statistically significant, with the confidence interval being 95% confidence. For the primary efficacy endpoint PFS, 50% (median) PFS and PFS at different time points after the start of the treatment were calculated by using the product limit method according to the data situation, and the two groups were compared using Log-Rank test. For OS, 50% (median) OS was calculated by using the product limit method according to the data situation, and the two groups were compared using Log-Rank test. The full analysis set (FAS) was used for the statistical dataset.

[3] = after the fourth treatment cycle
[4] = after the second treatment cycle
[5] = after the sixth treatment cycle
[6] = CR or PR achieved with second-line chemotherapy: No
[7] = CR or PR achieved with second-line chemotherapy: Yes
[8] = all patients, FAS, capsule 12 mg oral once daily, 2 weeks on / 1 week off
[9] = brain metastasis upon enrollment: Yes
[10] = clinical stage before randomization: extended stage

SMILES: COc1cc2c(Oc3ccc4[nH]c(C)cc4c3F)ccnc2cc1OCC1(N)CC1 [1-[[[4-(4-fluoro-2-methyl-1H-indol-5-yl)oxy-6-methoxyquinolin-7-yl]oxy]methyl]cyclopropylamine dihydrochloride]
- target lesion (CT) ([1]; after the first treatment cycle, liver nodes, 64 mm before treatment, 12 mg once daily 2 weeks on / 1 week off): 63 mm
- non-target lesions (CT) ([1]; after the first treatment cycle, multiple metastases in the brain): non-CR/non-PD
- non-target lesions (CT) [1, 3]: non-CR/non-PD
- target lesion (CT) [1, 3]: 66 mm
- non-target lesions (CT) [1, 4]: non-CR/non-PD
- target lesion (CT) [1, 4]: 65 mm
- non-target lesions (CT) [1, 5]: non-CR/non-PD
- target lesion (CT) [1, 5]: 72 mm
- tolerability of the administration ([1]; capsule 12 mg oral once daily, 2 weeks on / 1 week off): well tolerated
- Overall survival P50 [2, 6]: 7.29 month
- Progression-free survival P50 [2, 6]: 4.11 month
- Overall survival P50 [2, 7]: 6.80 month
- Progression-free survival P50 [2, 7]: 2.79 month
- Overall survival of patients (OS), Median (95% CI) [2, 8]: 7.29(6.50, 10.51) month
- Progression-free survival of patients (PFS), Median (95% CI) [2, 8]: 4.07(2.79, 4.24) month
- Overall survival P50 ([2]; brain metastasis upon enrollment: No): 8.80 month
- Overall survival P50 [2, 9]: 6.08 month
- Progression-free survival P50 [2, 9]: 3.84 month
- Overall survival P50 ([2]; chemotherapy line: second-line): 7.29 month
- Progression-free survival P50 ([2]; chemotherapy line: second-line): 4.11 month
- Overall survival P50 [2, 10]: 8.05 month
- Progression-free survival P50 [2, 10]: 3.84 month
- Progression-free survival P50 ([2]; clinical stage before randomization: limited stage): 4.83 month
- Progression-free survival P50 ([2]; treated with docetaxel: No): 4.07 month
- Progression-free survival P50 ([2]; treated with docetaxel: Yes): 2.83 month
- Progression-free survival P50 ([2]; treated with irinotecan + platinum: No): 2.83 month
- Progression-free survival P50 ([2]; treated with irinotecan + platinum: Yes): 4.07 month
- Progression-free survival P50 ([2]; treated with paclitaxel: No): 4.11 month
- Progression-free survival P50 ([2]; treated with paclitaxel: Yes): 2.86 month
